“Also recorded” adds a separate entry of the source. Like-named read-outs stand apart in the source and are kept apart here. Marks after values point to notes of the source that are not given here.
Key:
[1] = tested on: G93A SOD1 B6SJL hybrid (G93A) model; settings: for Heart / gastrocnemius: end of study;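 as to HR (hazard ratio) survival vs placebo, FIG. 2: dosing began after ALS onset in G93A SOD1 mice, with survival as the endpoint, defined humanely as the animal failing to regain upright posture within 30 s when placed sideways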;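 as to percent survival, comparison in words (FIGS. 2-4): dosing began after ALS onset in G93A SOD1 mice, with survival as the endpoint, defined humanely as the animal failing to regain upright posture within 30 s when placed sideways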
Description: (§1) Transgenic mice over-expressing a high copy number (25 copies) of mutated human SOD1 gene with a G93A point mutation, i.e., B6SJL-TgN [SOD1-G93A]1 Gur (G1H-G93A transgenic mice, JR2726; Hemizygote) (Gurney M E, et al., Science, 264, 1772-1775, 1994) (“G93A SOD1 B6SJL hybrid (G93A) model”), were used.
To study the effect of the test compounds on skeletal muscle atrophy, the skeletal muscle mass were determined at the end of the study.
The number of all mice in the population is indicated as “n” in at the bottom of FIGS. 21A-21C.
The number of all mice in the population is indicated as “n” in at the bottom of FIGS. 20D-20F.
The number of all mice in the population is indicated as “n” in at the bottom of FIGS. 21G-21I.

[2] = tested on: G93A SOD1 B6SJL hybrid (G93A) model; test: Disease progression score (JAX SOP) in G93A SOD1 transgenic mice
From the text: The disease progression score is based on the JAX SOP (Ludolph A C, Bendotti C, Blaugrund E, Hengerer B, Loffler J P, Martin J, Meininger V, Meyer T, Moussaoui S, Robberecht W, Scott S, Silani V, Van Den Berg L H (ENMC Group For The Establishment Of Guidelines For The Conduct Of Preclinical And Proof Of Concept Studies In ALS/MND Models). 2007, which is incorporated by reference).

[3] = tested on: G93A SOD1 B6SJL hybrid (G93A) model;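 as to HR (hazard ratio) survival vs placebo, FIG. 2: dosing began after ALS onset in G93A SOD1 mice, with survival as the endpoint, defined humanely as the animal failing to regain upright posture within 30 s when placed sideways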;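 as to percent survival, comparison in words (FIGS. 2-4): dosing began after ALS onset in G93A SOD1 mice, with survival as the endpoint, defined humanely as the animal failing to regain upright posture within 30 s when placed sideways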
From the text: To study the effect of S-oxprenolol on survival, survival was monitored over time.

[4] = tested on: G93A SOD1 B6SJL hybrid (G93A) model; test: Body weight and body composition (lean mass, fat mass; NMR scans) in G93A SOD1 transgenic mice; format: in vivo; settings: for Average Δ body weight / Average Δ fat mass / Average Δ lean mass: per day alive after disease onset
From the text: as §1
[…] […] There were 16 mice in the S-oxprenolol group.
The primary endpoint was survival, humanely defined as the ability of the animal to right itself in 30 seconds after being laid on its side. Secondary endpoints were body weight, body composition, spontaneous activity and food intake. Body weight of the animals was assessed weekly until onset of disease. Additionally, body composition (fat mass and lean body mass) was assessed using NMR scans (EchoMRI-100, Echo Medical Systems, Houston, USA) every 4 days. After onset of disease, body weight and body composition were assessed every two days until the end of the study. All personal handling the animals was strictly blinded to the randomized treatment allocation.
To study the effect of S-oxprenolol on body weight, body weight was monitored over time.
To study the effect of the test compounds on lean body mass, lean mass was determined at the end of the study.
To study the effect of the test compounds on fat mass, the fat mass were determined at the end of the study.
To study the effect of S-oxprenolol on body weight, body weight was monitored over time. […] The number of all mice in the population is indicated as “n” in at the bottom of FIGS. 20A-20C.
To study the effect of the test compounds on lean body mass, lean mass was determined at the end of the study. […] The number of all mice in the population is indicated as “n” in at the bottom of FIGS. 20D-20F.
To study the effect of the test compounds on fat mass, the fat mass were determined at the end of the study. […] The number of all mice in the population is indicated as “n” in at the bottom of FIGS. 20G-20I.

[5] = 20 mg/kg/day vs. S-Oxprenolol (20)
[6] = 10 mg/kg/day, S-pindolol 3 mg/kg/day

For `C=CCOc1ccccc1OC[C@@H](O)CNC(C)C` [S-oxprenolol, (S)-1-(2-(allyloxy)phenoxy)-3-(isopropylamino)propan-2-ol], the “gastrocnemius weight over days after onset, in words (FIG. 9)” value ([1]; 10 mg/kg/day) was “steady”, the “tibialis anterior muscle weight over days after onset, in words (FIG. 11)” value ([1]; 10 mg/kg/day) was “steady” and the “correlation R of tibialis anterior muscle weight with days after onset (=survival), FIG. 11” value ([1]; 10 mg/kg/day, p=0.72, placebo R: −0.67) was 0.15. The “correlation R of gastrocnemius weight with days after onset (=survival), FIG. 9” value ([1]; 10 mg/kg/day, p=0.94, placebo R: −0.56) was −0.03, the “BAT (brown adipose tissue)” value ([1]; all mice, 10 mg/kg/d) was 46.8 ± 3.5 mg and the “EDL (extensor digitorum longus)” value ([1]; all mice, 10 mg/kg/d) was 7.18 ± 0.34 mg. It also gave a soleus ([1]; all mice, 10 mg/kg/d) of 5.89 ± 0.35 mg, a Heart ([1]; all mice, 10 mg/kg/d) of 108.6 ± 5.8 mg and a gastrocnemius ([1]; all mice, 10 mg/kg/d) of 55.1 ± 4.0 mg. The “BAT (brown adipose tissue)” value ([1]; all mice, 20 mg/kg/d) was 43.7 ± 2.3 mg, the “EDL (extensor digitorum longus)” value ([1]; all mice, 20 mg/kg/d) was 7.791 ± 0.29*^+++ mg and the soleus ([1]; all mice, 20 mg/kg/d) was 6.42 ± 0.39 mg. The Heart ([1]; all mice, 20 mg/kg/d) was 104.1 ± 3.5 mg, the gastrocnemius ([1]; all mice, 20 mg/kg/d) was 50.1 ± 2.9 mg and the “BAT (brown adipose tissue)” value ([1]; female mice, 10 mg/kg/d) was 39.4 ± 4.2 mg. The “EDL (extensor digitorum longus)” value ([1]; female mice, 10 mg/kg/d) was 7.03 ± 0.51 mg, the soleus ([1]; female mice, 10 mg/kg/d) was 5.71 ± 0.48 mg and the Heart ([1]; female mice, 10 mg/kg/d) was 92.3 ± 3.2^p=0.064 mg. The gastrocnemius ([1]; female mice, 10 mg/kg/d) was 50.5 ± 4.0*^p=0.060 ^vs propanolol mg, the “BAT (brown adipose tissue)” value ([1]; female mice, 20 mg/kg/d) was 37.1 ± 2.9 mg and the “EDL (extensor digitorum longus)” value ([1]; female mice, 20 mg/kg/d) was 7.29 ± 0.42*^$ mg. For the same molecule, the soleus ([1]; female mice, 20 mg/kg/d) was 6.15 ± 0.30 mg, the Heart ([1]; female mice, 20 mg/kg/d) was 92.8 ± 3.0 mg and the gastrocnemius ([1]; female mice, 20 mg/kg/d) was 46.2 ± 3.9 mg. The “BAT (brown adipose tissue)” value ([1]; male mice, 10 mg/kg/d) was 53.2 ± 5.0 mg, the “EDL (extensor digitorum longus)” value ([1]; male mice, 10 mg/kg/d) was 7.28 ± 0.47 mg and the soleus ([1]; male mice, 10 mg/kg/d) was 6.04 ± 0.53 mg. The Heart ([1]; male mice, 10 mg/kg/d) was 122.6 ± 8.8 mg, the gastrocnemius ([1]; male mice, 10 mg/kg/d) was 59.1 ± 6.6 mg and the “BAT (brown adipose tissue)” value ([1]; male mice, 20 mg/kg/d) was 46.5 ± 3.0 mg. The “EDL (extensor digitorum longus)” value ([1]; male mice, 20 mg/kg/d) was 8.15 ± 0.39^$$$ mg, the soleus ([1]; male mice, 20 mg/kg/d) was 6.58 ± 0.61 mg and the Heart ([1]; male mice, 20 mg/kg/d) was 112.4 ± 4.5 mg. For the same molecule, the gastrocnemius ([1]; male mice, 20 mg/kg/d) was 53.1 ± 4.3 mg, the “HR Progression from score 1 to score 2 (FIG. 17)” value (“HR Progression … (FIG. 17)” below) ([2]; 10 mg/kg/day vs. placebo) was 0.56 and the “HR Progression from score 1 to score 3 (FIG. 19)” value (from here on “HR Progression … (FIG. 19)”) ([2]; 10 mg/kg/day vs. placebo) was 0.73. For the same molecule, the “HR Progression from score 2 to score 3 (FIG. 18)” value (shortened to “HR Progression … (FIG. 18)”) ([2]; 10 mg/kg/day vs. placebo) was 1.07, the “HR Progression … (FIG. 17)” value [2, 5] was 1.17 and the “HR Progression … (FIG. 19)” value [2, 5] was 1.48. The “HR Progression … (FIG. 18)” value [2, 5] was 1.20, the “HR Progression … (FIG. 17)” value ([2]; 20 mg/kg/day vs. placebo) was 0.51 and the “HR Progression … (FIG. 19)” value ([2]; 20 mg/kg/day vs. placebo) was 0.47. For the same molecule, the “HR Progression … (FIG. 18)” value ([2]; 20 mg/kg/day vs. placebo) was 0.64, the “percent survival, comparison in words (FIGS. 2-4)” value ([3]; 10 mg/kg/day) was “longer survival than those in the placebo group; also recorded: significantly superior to either placebo or S-pindolol at its preferred dose; also recorded: significantly superior to either placebo or the other compounds” and the “HR (hazard ratio) survival vs placebo, FIG. 2” value ([3]; 10 mg/kg/day, 95% CI: 0.171-0.88, p=0.0241) was 0.39. The “Median survival ratio vs placebo” value ([3]; 10 mg/kg/day, 95% CI: 0.83-1.81) was 1.32, the “Median survival after onset of ALS symptoms” value ([3]; 10 mg/kg/day, placebo 28 days) was 37 days and the “survival, days after onset” value ([3]; 10 mg/kg/day, placebo 42 days) was 56 days. The “survival improved compared to placebo treated mice” value ([3]; G93A mice, 10 mg/kg/day after onset of ALS) was “about 33%”, the “percent survival, comparison in words (FIG. 14)” value ([3]; all mice, 20 mg/kg/day) was “longer survival than other groups” and the “HR survival (FIG. 14)” value ([3]; all mice, 10 mg/kg/day vs. placebo) was 0.71. The “HR survival (FIG. 14)” value ([3]; all mice, 20 mg/kg/day vs. placebo) was 0.45, the “percent survival, comparison in words (FIG. 16)” value ([3]; female mice, 20 mg/kg/day) was “longer survival than other groups” and the “HR survival (FIG. 16)” value ([3]; female mice, 10 mg/kg/day vs. placebo) was 0.96. The “HR survival (FIG. 16)” value ([3]; female mice, 20 mg/kg/day vs. placebo) was 0.53, the “percent survival, comparison in words (FIG. 15)” value ([3]; male mice, 20 mg/kg/day) was “longer survival than other groups” and the “HR survival (FIG. 15)” value ([3]; male mice, 10 mg/kg/day vs. placebo) was 0.46. The “HR survival (FIG. 15)” value ([3]; male mice, 20 mg/kg/day vs. placebo) was 0.39, the “change in lean body mass, in words (FIG. 6)” value ([4]; 10 mg/kg/day, end of study) was “less change in lean body mass than those receiving a placebo” and the “change in fat mass per survival day after ALS onset, in words (FIG. 13)” value [4, 6] was “less change in fat mass than those receiving S-pindolol”. The “change in lean body mass per survival day after ALS onset, in words (FIG. 7)” value [4, 6] was “less change in lean body mass than those receiving S-pindolol”, the “change of body weight per survival day after ALS onset, in words (FIG. 5)” value [4, 6] was “body weight loss that was close to those administered S-pindolol; also recorded: less body weight loss than those in the placebo group” and the “Wasting of lean mass reduced compared to placebo (FIG. 6)” value ([4]; 10 mg/kg/day, p=0.18) was “about 40%”. The Δ body weight ([4]; all mice, 10 mg/kg/d) was -5.4 ± 0.43 g, the Δ fat mass ([4]; all mice, 10 mg/kg/d) was -1.26 ± 0.14 g and the Δ lean mass ([4]; all mice, 10 mg/kg/d) was -3.31 ± 0.33 g. For the same molecule, the “Average Δ body weight” value ([4]; all mice, 10 mg/kg/d) was -123 ± 11.6 mg/day, the “Average Δ fat mass” value ([4]; all mice, 10 mg/kg/d) was -29.4 ± 3.7 mg/day and the “Average Δ lean mass” value ([4]; all mice, 10 mg/kg/d) was -89.6 ± 9.1 mg/day. The Δ body weight ([4]; all mice, 20 mg/kg/d) was -5.56 ± 0.47 g, the Δ fat mass ([4]; all mice, 20 mg/kg/d) was -1.56 ± 0.18 g and the Δ lean mass ([4]; all mice, 20 mg/kg/d) was -4.78 ± 0.41 g. The “Average Δ body weight” value ([4]; all mice, 20 mg/kg/d) was −99.4 ± 9.7^p=0.064 mg/day, the “Average Δ fat mass” value ([4]; all mice, 20 mg/kg/d) was -29.8 ± 3.6 mg/day and the “Average Δ lean mass” value ([4]; all mice, 20 mg/kg/d) was -93.3 ± 7.5 mg/day. The “change in fat mass, in words (FIG. 12)” value ([4]; end of study, p>0.5) was “no effect on the loss of fat mass”, the Δ body weight ([4]; female mice, 10 mg/kg/d) was -4.51 ± 0.55 g and the Δ fat mass ([4]; female mice, 10 mg/kg/d) was −1.17 ± 0.21^p=0.059 g. The Δ lean mass ([4]; female mice, 10 mg/kg/d) was -3.99 ± 0.37 g, the “Average Δ body weight” value ([4]; female mice, 10 mg/kg/d) was -103.3 ± 16.1 mg/day and the “Average Δ fat mass” value ([4]; female mice, 10 mg/kg/d) was -25.9 ± 4.8 mg/day. For the same molecule, the “Average Δ lean mass” value ([4]; female mice, 10 mg/kg/d) was -69.2 ± 10.8 mg/day, the Δ body weight ([4]; female mice, 20 mg/kg/d) was -4.57 ± 0.55 g and the Δ fat mass ([4]; female mice, 20 mg/kg/d) was -1.29 ± 0.17 g. The Δ lean mass ([4]; female mice, 20 mg/kg/d) was -3.97 ± 0.49 g, the “Average Δ body weight” value ([4]; female mice, 20 mg/kg/d) was -82.0 ± 13.6 mg/day and the “Average Δ fat mass” value ([4]; female mice, 20 mg/kg/d) was −26.8 ± 4.4^+ mg/day. For the same molecule, the “Average Δ lean mass” value ([4]; female mice, 20 mg/kg/d) was 90.7 ± 10.9 mg/day, the Δ body weight ([4]; male mice, 10 mg/kg/d) was -6.57 ± 0.57 g and the Δ fat mass ([4]; male mice, 10 mg/kg/d) was -1.44 ± 0.19 g. The Δ lean mass ([4]; male mice, 10 mg/kg/d) was -3.67 ± 0.49 g, the “Average Δ body weight” value ([4]; male mice, 10 mg/kg/d) was -150.3 ± 14.5 mg/day and the “Average Δ fat mass” value ([4]; male mice, 10 mg/kg/d) was -33.6 ± 5.7 mg/day. For the same molecule, the “Average Δ lean mass” value ([4]; male mice, 10 mg/kg/d) was -115.1 ± 13.9 mg/day, the Δ body weight ([4]; male mice, 20 mg/kg/d) was -6.36 ± 0.67 g and the Δ fat mass ([4]; male mice, 20 mg/kg/d) was -1.78 ± 0.28 g. For the same molecule, the Δ lean mass ([4]; male mice, 20 mg/kg/d) was -5.34 ± 0.56 g, the “Average Δ body weight” value ([4]; male mice, 20 mg/kg/d) was -115.7 ± 12.6 mg/day and the “Average Δ fat mass” value ([4]; male mice, 20 mg/kg/d) was -32.1 ± 5.4 mg/day. The “Average Δ lean mass” value ([4]; male mice, 20 mg/kg/d) was -95.8 ± 10.6 mg/day.

Source: patent US12303474B2, “S-enantiomerically enriched compositions of beta blockers for treating amyotrophic lateral sclerosis” (priority 2013, dated 2025)
